Legend:
[1] = MTT cytotoxicity assay; type: cell-based; details: human, H23 NSCLC cells; gefitinib alone at 50 μM, FIG. 21(b); read-out: Loss of viability of H23 cells
[2] = system: H23 NSCLC cells; assay: MTT cytotoxicity assay; type: cell-based; details: gefitinib alone, up to a concentration of 25 μM, FIG. 21(b)

Compound: COc1cc2ncnc(Nc3ccc(F)c(Cl)c3)c2cc1OCCCN1CCOCC1 [gefitinib]
- cytotoxicity at 50 μM [1]: 70%
- Cytotoxicity (MTT) [2]: no toxicity

Source: patent US20220331442A1, “ANTIBODY-BIOMOLECULE CONJUGATES LINKED THROUGH MULTIFUNCTIONAL MACROMOLECULE AND USES THEREOF” (LEVIM BIOTECH LLP, priority 2018, published 2022)
